Measured values as given in patent US7423032B2, “Method for treating severe heart failure and medicament therefor” (Otsuka Pharmaceutical Co., Ltd., priority 2003, dated 2008).

Key:
Type in all cases: in vivo, human patients
[1] = Discontinued cases due to adverse experiences in patients treated with (A); settings: for Discontinuation due to Adverse Experience Event Rate (%): placebo 15.0%
Procedure: (§1) To patients of severe heart failure (i.e., patient in acute heart failure or chronic heart failure in acute exacerbation, New York Heart Association Class III and IV) was administered 5-hydroxy-7-chloro-1-[2-methyl-4-(2-methylbenzoylamino)benzoyl]-2,3,4,5-tetrahydro-1H-benzazepine at a dose of 30, 60 or 90 mg/day for a period of 60 days, which period began from the duration of hospitalization to after being discharged from hospital (details thereof are shown in Table 1).
(§2) In addition, in the group treated with the lowest dose of 30 mg, the urinary frequency event rate as an adverse experience was lower (Table 6), and the discontinued rate due to adverse experiences was lower (Table 7), as compared with the data of the groups treated with higher doses.

[2] = tested on: patients of severe heart failure; assay: Mortality of the patients treated with (A); settings: for Mortality Event Rate (%): placebo 8.7%; for Number off Death: on therapy up to 60 days
Procedure: as §1
(§3) As to the statistical analysis, the data in Table 2 was analyzed by ANOVA method, and the data in Tables 3 and 4 were analyzed by ANCOVA method, and the data in Table 5 was analyzed by Log-Rank test.

[3] = Mean change in body weight from baseline in patients treated with (A); set-up: Mean change in body weight from baseline: unit not given here
Procedure: as §1, §3
(§4) When the dosages in this experiment were converted to a daily dose per 1 kg of body weight, they were 0.371±0.096 mg/kg (n=77) in the 30 mg-treated group, 0.769±0.205 mg/kg (n=83) in the 60 mg-treated group, and 1.149±0.283 mg/kg (n=76) in the 90 mg-treated group (all in mean±SD).

[4] = Serum sodium concentration in patients of hyponatremia at baseline treated with (A); settings: for Serum sodium concentration: mean ± SD
Procedure: as §1
As to the statistical analysis, the data in Table 2 was analyzed by ANOVA method, and the data in Tables 3 and 4 were analyzed by ANCOVA method, and the data in Table 5 was analyzed by Log-Rank test. […]

[5] = Adverse events (urinary frequency) in patients treated with (A); settings: for Urinary Frequency Event Rate (%): placebo 1.3%
Procedure: as §1, §2

[6] = Total urine output in patients treated with (A), placebo-controlled Phase IIB study; set-up: Total urine output: unit not given here
Procedure: as §1, §3, §4

[7] = 30 mg group compared with groups treated with higher doses
[8] = 30 mg/day oral, 78 patients randomized
[9] = 60 mg/day oral, 84 patients randomized
[10] = 90 mg/day oral, 77 patients randomized

Structure (SMILES): Cc1ccccc1C(=O)Nc1ccc(C(=O)N2CCCC(O)c3cc(Cl)ccc32)c(C)c1 (stereo not drawn) [(A), 5-hydroxy-7-chloro-1-[2-methyl-4-(2-methylbenzoylamino)benzoyl]-2,3,4,5-tetrahydro-1H-benzazepine]
- discontinued rate due to adverse experiences (in words) [1, 7]: lower
- Discontinued cases due to Adverse Experience (number) [1, 8]: 14
- Discontinuation due to Adverse Experience Event Rate (%) [1, 8]: 17.9%
- Discontinued cases due to Adverse Experience (number) [1, 9]: 25
- Discontinuation due to Adverse Experience Event Rate (%) [1, 9]: 29.8%
- Discontinued cases due to Adverse Experience (number) [1, 10]: 17
- Discontinuation due to Adverse Experience Event Rate (%) [1, 10]: 22.1%
- mortality rate vs control group (in words) ([2]; 30 mg-treated group, entire period, Log-Rank test): significantly lower
- Mortality Event Rate (%) [2, 8]: 3.8%
- Number off Death [2, 8]: 3
- Mortality Event Rate (%) [2, 9]: 9.5%
- Number off Death [2, 9]: 8
- Mortality Event Rate (%) [2, 10]: 2.5%
- Number off Death [2, 10]: 2
- body weight (in words) ([3]; 30 mg-treated group): decreased
- Mean change in body weight from baseline ([3]; 30 mg/day oral, Day 1, mean ± SD, n=76): −2.14 ± 2.63
- Mean change in body weight from baseline ([3]; 30 mg/day oral, Day 2, mean ± SD, n=63): −3.49 ± 3.80
- Mean change in body weight from baseline ([3]; 30 mg/day oral, Day 3, mean ± SD, n=49): −4.78 ± 4.14
- Mean change in body weight from baseline ([3]; 30 mg/day oral, Discharge, mean ± SD, n=76): −4.37 ± 4.69
- Mean change in body weight from baseline ([3]; 30 mg/day oral, Last Visit, mean ± SD, n=76): −2.42 ± 5.37
- Mean change in body weight from baseline ([3]; 30 mg/day oral, outpatient Week 1, mean ± SD, n=65): −2.71 ± 4.93
- Mean change in body weight from baseline ([3]; 30 mg/day oral, outpatient Week 7, mean ± SD, n=54): −2.12 ± 5.16
- Mean change in body weight from baseline ([3]; 60 mg/day oral, Day 1, mean ± SD, n=76): −2.10 ± 1.80
- Mean change in body weight from baseline ([3]; 60 mg/day oral, Day 2, mean ± SD, n=65): −3.03 ± 2.48
- Mean change in body weight from baseline ([3]; 60 mg/day oral, Day 3, mean ± SD, n=47): −3.93 ± 3.33
- Mean change in body weight from baseline ([3]; 60 mg/day oral, Discharge, mean ± SD, n=82): −4.60 ± 4.67
- Mean change in body weight from baseline ([3]; 60 mg/day oral, Last Visit, mean ± SD, n=82): −3.60 ± 6.38
- Mean change in body weight from baseline ([3]; 60 mg/day oral, outpatient Week 1, mean ± SD, n=59): −2.73 ± 5.45
- Mean change in body weight from baseline ([3]; 60 mg/day oral, outpatient Week 7, mean ± SD, n=54): −2.87 ± 6.67
- Mean change in body weight from baseline ([3]; 90 mg/day oral, Day 1, mean ± SD, n=74): −1.90 ± 2.87
- Mean change in body weight from baseline ([3]; 90 mg/day oral, Day 2, mean ± SD, n=61): −2.84 ± 3.16
- Mean change in body weight from baseline ([3]; 90 mg/day oral, Day 3, mean ± SD, n=45): −2.65 ± 4.22
- Mean change in body weight from baseline ([3]; 90 mg/day oral, Discharge, mean ± SD, n=76): −3.75 ± 4.18
- Mean change in body weight from baseline ([3]; 90 mg/day oral, Last Visit, mean ± SD, n=76): −2.39 ± 5.20
- Mean change in body weight from baseline ([3]; 90 mg/day oral, outpatient Week 1, mean ± SD, n=53): −3.23 ± 4.46
- Mean change in body weight from baseline ([3]; 90 mg/day oral, outpatient Week 7, mean ± SD, n=53): −2.23 ± 5.19
- Serum sodium concentration ([4]; 30 mg group, Baseline, patients of hyponatremia at baseline, n=15): 132.13 ± 3.44 mEq/L
- Serum sodium concentration ([4]; 30 mg/day oral, Day 1, patients of hyponatremia at baseline, n=15): 136.00 ± 3.96 mEq/L
- Serum sodium concentration ([4]; 30 mg/day oral, Day 2, patients of hyponatremia at baseline, n=11): 135.09 ± 5.07 mEq/L
- Serum sodium concentration ([4]; 30 mg/day oral, Day 3, patients of hyponatremia at baseline, n=8): 135.13 ± 5.38 mEq/L
- Serum sodium concentration ([4]; 30 mg/day oral, Discharge, patients of hyponatremia at baseline, n=15): 136.13 ± 4.61 mEq/L
- Serum sodium concentration ([4]; 30 mg/day oral, Last Visit, patients of hyponatremia at baseline, n=15): 137.00 ± 5.04 mEq/L
- Serum sodium concentration ([4]; 30 mg/day oral, outpatient Week 1, patients of hyponatremia at baseline, n=12): 138.25 ± 4.22 mEq/L
- Serum sodium concentration ([4]; 30 mg/day oral, outpatient Week 7, patients of hyponatremia at baseline, n=10): 137.60 ± 4.65 mEq/L
- Serum sodium concentration ([4]; 60 mg group, Baseline, patients of hyponatremia at baseline, n=22): 130.86 ± 4.00 mEq/L
- Serum sodium concentration ([4]; 60 mg/day oral, Day 1, patients of hyponatremia at baseline, n=22): 135.77 ± 6.16 mEq/L
- Serum sodium concentration ([4]; 60 mg/day oral, Day 2, patients of hyponatremia at baseline, n=17): 137.29 ± 3.02 mEq/L
- Serum sodium concentration ([4]; 60 mg/day oral, Day 3, patients of hyponatremia at baseline, n=13): 138.62 ± 4.44 mEq/L
- Serum sodium concentration ([4]; 60 mg/day oral, Discharge, patients of hyponatremia at baseline, n=22): 137.18 ± 4.56 mEq/L
- Serum sodium concentration ([4]; 60 mg/day oral, Last Visit, patients of hyponatremia at baseline, n=22): 136.18 ± 5.94 mEq/L
- Serum sodium concentration ([4]; 60 mg/day oral, outpatient Week 1, patients of hyponatremia at baseline, n=16): 136.88 ± 5.82 mEq/L
- Serum sodium concentration ([4]; 60 mg/day oral, outpatient Week 7, patients of hyponatremia at baseline, n=11): 139.36 ± 4.76 mEq/L
- Serum sodium concentration ([4]; 90 mg group, Baseline, patients of hyponatremia at baseline, n=15): 133.07 ± 2.52 mEq/L
- Serum sodium concentration ([4]; 90 mg/day oral, Day 1, patients of hyponatremia at baseline, n=15): 137.13 ± 4.82 mEq/L
- Serum sodium concentration ([4]; 90 mg/day oral, Day 2, patients of hyponatremia at baseline, n=15): 137.00 ± 4.60 mEq/L
- Serum sodium concentration ([4]; 90 mg/day oral, Day 3, patients of hyponatremia at baseline, n=11): 136.45 ± 4.59 mEq/L
- Serum sodium concentration ([4]; 90 mg/day oral, Discharge, patients of hyponatremia at baseline, n=15): 137.13 ± 3.02 mEq/L
- Serum sodium concentration ([4]; 90 mg/day oral, Last Visit, patients of hyponatremia at baseline, n=15): 136.60 ± 5.17 mEq/L
- Serum sodium concentration ([4]; 90 mg/day oral, outpatient Week 1, patients of hyponatremia at baseline, n=8): 136.13 ± 3.64 mEq/L
- Serum sodium concentration ([4]; 90 mg/day oral, outpatient Week 7, patients of hyponatremia at baseline, n=6): 138.00 ± 5.73 mEq/L
- serum sodium concentration (in words) ([4]; patients of hyponatremia at baseline (less than 136 mEq/L)): increase of serum sodium concentration
- urinary frequency event rate as an adverse experience (in words) [5, 7]: lower
- Adverse Event Urinary Frequency (number of patients) ([5]; 30 mg/day oral, 78 patients): 1
- Urinary Frequency Event Rate (%) ([5]; 30 mg/day oral, 78 patients): 1.3%
- Adverse Event Urinary Frequency (number of patients) ([5]; 60 mg/day oral, 84 patients): 3
- Urinary Frequency Event Rate (%) ([5]; 60 mg/day oral, 84 patients): 3.6%
- Adverse Event Urinary Frequency (number of patients) ([5]; 90 mg/day oral, 76 patients): 4
- Urinary Frequency Event Rate (%) ([5]; 90 mg/day oral, 76 patients): 5.3%
- total urine output (in words) ([6]; 30 mg-treated group): increased
- Total urine output ([6]; 30 mg/day oral, Day 1, mean ± SD, n=73): 4056.16 ± 2310.23
- Total urine output ([6]; 30 mg/day oral, Day 2, mean ± SD, n=67): 3905.61 ± 1942.03
- Total urine output ([6]; 30 mg/day oral, Day 3, mean ± SD, n=52): 3579.04 ± 1867.86
- Total urine output ([6]; 30 mg/day oral, Day 6, mean ± SD, n=33): 3146.67 ± 1618.09
- Total urine output ([6]; 30 mg/day oral, Day 7, mean ± SD, n=16): 2662.81 ± 1507.51
- Total urine output ([6]; 30 mg/day oral, Day 9, mean ± SD, n=5): 2908.00 ± 475.59
- Total urine output ([6]; 60 mg/day oral, Day 1, mean ± SD, n=82): 4175.15 ± 2695.44
- Total urine output ([6]; 60 mg/day oral, Day 2, mean ± SD, n=74): 3699.26 ± 2094.02
- Total urine output ([6]; 60 mg/day oral, Day 3, mean ± SD, n=54): 3420.41 ± 1902.77
- Total urine output ([6]; 60 mg/day oral, Day 6, mean ± SD, n=32): 3684.56 ± 2472.45
- Total urine output ([6]; 60 mg/day oral, Day 7, mean ± SD, n=17): 4230.00 ± 1691.43
- Total urine output ([6]; 60 mg/day oral, Day 9, mean ± SD, n=11): 3753.18 ± 2415.48
- Total urine output ([6]; 90 mg/day oral, Day 1, mean ± SD, n=73): 4127.27 ± 2050.81
- Total urine output ([6]; 90 mg/day oral, Day 2, mean ± SD, n=64): 3961.73 ± 2129.11
- Total urine output ([6]; 90 mg/day oral, Day 3, mean ± SD, n=50): 4069.32 ± 2306.07
- Total urine output ([6]; 90 mg/day oral, Day 6, mean ± SD, n=30): 4188.23 ± 2275.15
- Total urine output ([6]; 90 mg/day oral, Day 7, mean ± SD, n=17): 3915.12 ± 2101.53
- Total urine output ([6]; 90 mg/day oral, Day 9, mean ± SD, n=7): 2421.43 ± 1391.12
